Reference: patent US20030088061A1, “Materials and methods to modulate ligand binding/enzymatic activity of alpha/beta proteins containing an allosteric regulatory site” (priority 2000, published 2003)
pEC50, pIC50: −log10 of the molar value. Values joined by “and” are separate entries in the source; they are usually repeats but may differ in a detail not shown here. Identical values can stand only once. Like-named read-outs stand apart in the source and are kept apart here.

Tests used:
α2β1 = molecular target: T1, α2β1 (Homo sapiens, UniProt P05556+P17301); assay: Jurkat cell adhesion to rat type I collagen; type: cell-based; details: Jurkat cells, PMA
T1 construct: endogenous in cells; host or cells: Jurkat cells
Protocol: Binding studies using monoclonal antibodies to each of these integrins has shown that Jurkat cell adhesion to rat type I collagen is mediated predominantly through interaction with alpha2. […] The assay was carried out using a modification of a procedure previously described [Sadhu, et al., supra]. Immunlon 4 plates (Dynex Technologies, Chantilly, Va.) were coated overnight at 4° C. with (i) 50 μl rat type I collagen (Sigma) (20 μg/ml in CMF-PBS), (ii) anti-beta1 monoclonal antibody 3S3 (5 μg/ml) in bicarbonate buffer, pH 9.6, (iii) or bicarbonate buffer alone. Plates were washed once with 200 μl/well D-PBS and blocked with 1% BSA (100 μl/well) in D-PBS for 1 hr at room temperature. […] Adherent cells were fixed by additional of 50 μl/well 14% glutaraldehyde in D-PBS and incubation at room temperature for 2 hr. The plates were washed with dH2O and stained with 50 μl/well 0.5% crystal violet in 10% ethanol for 5 min at room temperature. The plates were washed in several changes of dH2O, after which 70% ethanol was added. Adherent cells were quantitated by determining absorbance at 570 nm and 410 nm using a […] 250 microplate spectrophotometer system (Molecular Devices, Sunnyvale Calif.). The percentage of cell binding was determined using the formula below. [formula] Data was normalized using the formula: [formula] […] These 21 compounds were further analyzed for specificity and toxicity. […] The assay was carried out in a manner similar to the collagen adhesion assay described above except that […] with VCAM-1/Ig instead of collagen. Binding to VCAM-1 was dependent on surface expression of α4β1.

Jurkat cells = assay: Jurkat cell toxicity (CellTiter 96 Aqueous One Solution); type: cell-based; details: four hr or 24 hr incubation
Protocol: For 21 compounds, toxicity of Jurkat cells was assessed following a four hr or 24 hr incubation. […] A two-fold serial dilution series of each compound was tested in a concentration range of 40 μM to 0.15 μM.

α4β1 = α4β1 (Homo sapiens, UniProt P05556+P13612); assay: Jurkat cell binding to immobilized VCAM-1/Ig; type: cell-based; set-up: endogenous in cells; host or cells: Jurkat cells; details: Jurkat cells; tested 0.15 μM to 20 μM; read-out: α7β1/VCAM EC50
Protocol: These 21 compounds were further analyzed for specificity and toxicity. […] The assay was carried out in a manner similar to the collagen adhesion assay described above except that […] with VCAM-1/Ig instead of collagen. Binding to VCAM-1 was dependent on surface expression of α4β1.

CD11b (Mac-1) = molecular target: T2, CD11b (Mac-1) (Homo sapiens, UniProt P11215); assay: CD11b-mediated neutrophil adhesion to fibrinogen; type: cell-based
T2 construct: endogenous in cells; host or cells: neutrophils from fresh human blood
Protocol: The adhesion assay described above for CD18/CD11b-(Mac-1)-mediated adhesion of HL-60 cells to ICAM-1 was carried out with the following modifications. Each well was coated overnight at 4° C. with 50 μl of glycophorin (10 μg/ml), fibrinogen (5 μg/ml) or with anti-CD18 monoclonal antibody (22F12C, 5 μg/ml) and anti-CD11b monoclonal antibody (44AACB, 5 μg/ml) in 50 mM bicarbonate buffer (pH 9.6). Plates were blocked with 1% human serum albumin and no blocking antibody was used. Neutrophils were isolated from fresh heparin whole human blood by density gradient centrifugation and 100 μl of the cells (4×10^6 cells/ml) in adhesion buffer was added to each well. Plates were incubated at 37° C. for 10 minutes.

[1] = molecular target: iC3b (Homo sapiens (Human)) (UniProt P01024); assay: adhesion of COS-7 transfectants to immobilized iC3b
[2] = molecular target: ICAM-1/Fc (Homo sapiens (Human)) (UniProt P05362); assay: adhesion of COS-7 transfectants to immobilized ICAM-1/Fc
Rac1 = molecular target: T3, Rac1 (Homo sapiens, UniProt P63000); assay: Tiam1-catalyzed guanine nucleotide exchange of Rac1; type: biochemical; details: in the presence of Tiam1; read-out: IC50, Rac1 guanine nucleotide exchange reaction
T3 construct: GST (cleaved yes); made in house; host or cells: E. coli
Protocol: Rac1 was expressed in E. coli as a GST fusion protein using the vector pGEX2T in accordance with previously described methods [Self and Hall, Meth. Enzymol. 256:3 (1995)]. Purified thrombin-cleaved Rac1 protein was used in the assay.
The Tiam1 DH-PH domain expressed as a fusion protein containing a carboxy terminal 6XHis tag using the plasmid pET28a described by Rossman and Campbell, Meth. Enzymol. 325:25 (2000).
The Tiam1-catalyzed exchange of GDP for GTP of Rac1 was carried out essentially according to the procedure described by Crompton et al., J. Biol.Chem. 275(33):25751 (2000). GDP-bound Rac1 was incubated with [α^32P]-labeled GTP, in the presence of Tiam1 and nucleotide exchange was monitored by following the increase in radioactivity bound to Rac1. Free radioactivity was removed by placing the reaction mixture in the well of a 96-well plate and filtering out the fraction of [α^32P]GTP that is not bound to Rac1. During the screen for the nucleotide exchange antagonists, the compounds were used at 10 μM concentration. The compounds analyzed by the screening methods are further described below.
Compounds that inhibit the Rac1 guanine nucleotide exchange reaction by at least 50% of the control were obtained. The IC50 value of several of the compounds were determined for the guanine nucleotide exchange reaction of Rac1, in the presence of Tiam1.

[3] = read-out: IC50, neutrophil adhesion to fibrinogen
[4] = after SAR efforts based on Cmpd S, read-out: IC50 (inhibition potency), neutrophil adhesion to fibrinogen

T1 sequence (P17301 30-1181): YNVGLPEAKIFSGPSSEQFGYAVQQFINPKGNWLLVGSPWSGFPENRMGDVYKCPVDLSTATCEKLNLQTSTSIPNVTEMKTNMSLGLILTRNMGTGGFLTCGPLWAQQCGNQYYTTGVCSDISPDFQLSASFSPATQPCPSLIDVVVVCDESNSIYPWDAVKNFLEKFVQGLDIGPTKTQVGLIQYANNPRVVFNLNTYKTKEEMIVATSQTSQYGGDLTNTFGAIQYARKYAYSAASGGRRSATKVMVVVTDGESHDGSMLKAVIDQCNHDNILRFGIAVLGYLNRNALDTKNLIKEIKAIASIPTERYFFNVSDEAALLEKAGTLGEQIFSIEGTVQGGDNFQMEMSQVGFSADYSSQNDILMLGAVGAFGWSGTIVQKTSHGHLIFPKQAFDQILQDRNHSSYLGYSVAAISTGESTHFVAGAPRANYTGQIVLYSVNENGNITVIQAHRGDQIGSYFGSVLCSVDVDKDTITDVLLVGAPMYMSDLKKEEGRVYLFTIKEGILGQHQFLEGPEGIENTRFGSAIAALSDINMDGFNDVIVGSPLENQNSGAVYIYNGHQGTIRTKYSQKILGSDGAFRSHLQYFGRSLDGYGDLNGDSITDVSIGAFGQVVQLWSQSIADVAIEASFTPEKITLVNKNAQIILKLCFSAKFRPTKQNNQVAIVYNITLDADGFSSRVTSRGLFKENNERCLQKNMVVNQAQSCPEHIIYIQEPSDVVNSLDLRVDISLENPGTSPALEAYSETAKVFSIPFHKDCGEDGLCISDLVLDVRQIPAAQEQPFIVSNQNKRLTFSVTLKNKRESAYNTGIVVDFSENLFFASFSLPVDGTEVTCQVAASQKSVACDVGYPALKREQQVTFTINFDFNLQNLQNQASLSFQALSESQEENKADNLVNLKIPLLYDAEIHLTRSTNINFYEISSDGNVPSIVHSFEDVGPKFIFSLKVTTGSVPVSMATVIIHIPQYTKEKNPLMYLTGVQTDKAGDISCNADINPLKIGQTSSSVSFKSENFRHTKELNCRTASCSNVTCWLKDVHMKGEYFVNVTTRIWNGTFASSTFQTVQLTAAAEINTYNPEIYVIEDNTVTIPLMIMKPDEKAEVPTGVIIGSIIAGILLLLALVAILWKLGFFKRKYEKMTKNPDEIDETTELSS
T1 sequence (P05556 21-798 partner): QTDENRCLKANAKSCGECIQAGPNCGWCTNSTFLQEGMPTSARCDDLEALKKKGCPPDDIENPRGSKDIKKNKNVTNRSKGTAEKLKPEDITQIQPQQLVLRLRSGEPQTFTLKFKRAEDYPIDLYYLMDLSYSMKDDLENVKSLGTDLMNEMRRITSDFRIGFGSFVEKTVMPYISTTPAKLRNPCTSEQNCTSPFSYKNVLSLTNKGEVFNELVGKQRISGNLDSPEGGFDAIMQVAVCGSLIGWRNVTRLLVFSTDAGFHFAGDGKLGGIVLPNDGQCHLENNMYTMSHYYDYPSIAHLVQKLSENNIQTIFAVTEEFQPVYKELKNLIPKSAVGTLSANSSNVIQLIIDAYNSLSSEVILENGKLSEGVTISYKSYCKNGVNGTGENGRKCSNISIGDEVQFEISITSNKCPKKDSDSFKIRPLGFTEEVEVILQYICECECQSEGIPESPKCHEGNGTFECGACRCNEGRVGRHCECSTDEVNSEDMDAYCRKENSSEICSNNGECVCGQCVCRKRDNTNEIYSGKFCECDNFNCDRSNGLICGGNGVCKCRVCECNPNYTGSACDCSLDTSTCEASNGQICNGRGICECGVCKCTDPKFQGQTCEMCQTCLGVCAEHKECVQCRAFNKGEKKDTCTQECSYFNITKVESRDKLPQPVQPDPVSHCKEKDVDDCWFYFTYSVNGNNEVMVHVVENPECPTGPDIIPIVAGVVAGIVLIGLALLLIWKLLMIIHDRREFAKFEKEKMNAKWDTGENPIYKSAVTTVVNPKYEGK
α4β1, sequence (P13612 34-1032): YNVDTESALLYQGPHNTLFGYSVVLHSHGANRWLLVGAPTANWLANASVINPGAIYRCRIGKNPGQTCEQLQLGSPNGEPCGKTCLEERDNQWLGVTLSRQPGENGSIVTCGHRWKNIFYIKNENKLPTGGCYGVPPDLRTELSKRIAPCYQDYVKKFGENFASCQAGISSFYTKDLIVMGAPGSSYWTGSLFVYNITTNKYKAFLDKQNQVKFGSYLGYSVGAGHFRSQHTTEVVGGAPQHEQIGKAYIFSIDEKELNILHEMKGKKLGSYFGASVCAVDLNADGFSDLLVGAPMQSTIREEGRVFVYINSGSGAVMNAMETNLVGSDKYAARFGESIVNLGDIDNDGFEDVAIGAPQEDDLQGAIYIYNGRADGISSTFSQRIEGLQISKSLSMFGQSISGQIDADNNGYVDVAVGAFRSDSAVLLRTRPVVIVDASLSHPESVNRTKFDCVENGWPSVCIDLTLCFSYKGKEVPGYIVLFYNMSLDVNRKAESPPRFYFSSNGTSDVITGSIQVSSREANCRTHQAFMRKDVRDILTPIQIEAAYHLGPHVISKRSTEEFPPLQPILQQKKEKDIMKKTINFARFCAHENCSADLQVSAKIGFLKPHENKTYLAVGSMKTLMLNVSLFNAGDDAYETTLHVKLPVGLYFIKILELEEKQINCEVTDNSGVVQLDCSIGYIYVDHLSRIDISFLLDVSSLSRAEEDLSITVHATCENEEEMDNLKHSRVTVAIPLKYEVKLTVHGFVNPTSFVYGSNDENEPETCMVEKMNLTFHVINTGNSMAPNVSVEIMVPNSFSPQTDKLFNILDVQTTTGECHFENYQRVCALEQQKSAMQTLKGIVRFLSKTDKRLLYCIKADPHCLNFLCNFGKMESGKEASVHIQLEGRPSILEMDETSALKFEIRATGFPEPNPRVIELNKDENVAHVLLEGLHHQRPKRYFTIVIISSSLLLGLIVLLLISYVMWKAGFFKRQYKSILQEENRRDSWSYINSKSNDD
α4β1, sequence (P05556 21-798): as the sequence (P05556 21-798 partner) above

| Molecule | pEC50 (α2β1) | TOXICITY LD50 (Jurkat cells) | pEC50 (α4β1) | other results |
| --- | --- | --- | --- | --- |
| O=C(O)C(F)(F)F.O=C(O)C(F)(F)F.c1ccc(CN2CCC(NCc3ccccc3Sc3ccc4ccccc4c3)CC2)cc1 [Cmpd AF] | 5.22 | 35 µM | < 4.70 |  |
| CN(C)CCCCNCc1ccc(Sc2ccc(Cl)cc2Cl)c(Cl)c1 [Cmpd N] |  |  |  | pIC50 (CD11b (Mac-1); [3]): > 5.00 |
| CN(C)CCN(Cc1ccc(Sc2ccc(Cl)cc2Cl)c(Cl)c1)C(=O)c1ccc(/C=C/C(=O)N2CCOCC2)cc1Cl [Cmpd P] |  |  |  | pIC50 (CD11b (Mac-1); [3]): > 5.00 |
| O=C(/C=C/c1ccc(Sc2cccc(N3CCC(N4CCCC4)CC3)c2)c(Cl)c1Cl)NCCCN1CCCC1=O [Cmpd J] | 5.10 | >40 µM | < 4.70 |  |
| N[C@@H]1Cc2ccccc2O[C@@H]1c1ccc2c(c1)CCO2 [Cmpd Y] | 5.15 | 25 µM | < 4.70 |  |
| CC(C)(C)c1ccc(Sc2ccccc2CNCCN2CCCC2)cc1.O=C(O)C(F)(F)F.O=C(O)C(F)(F)F [Cmpd AB] | 4.89 | >40 µM | < 4.70 |  |
| CN1CCCN(C(=O)/C=C/c2ccc(Sc3ccc4c(ccn4C)c3)c(Cl)c2Cl)CC1.O=C(O)C(F)(F)F [Cmpd T] | 5.40 | 25 µM | 4.82 |  |
| CD11b V254A / CD18 (from UniProt P11215) (receptor) |  |  |  | binding, % [1]: 147%; binding, % of wildtype levels (% of wildtype levels) [2]: 115 |
| CC(CN(C)C)NCc1ccccc1Sc1ccc(C(C)(C)C)cc1 (centres unmarked) [Cmpd AA] |  |  |  | pIC50 (CD11b (Mac-1); [4]): > 6.70 |
| CC(=O)N1CCN(C(=O)C2CC2c2ccc(Sc3ccccc3C(C)C)c(Cl)c2Cl)CC1 (centres unmarked) [Cmpd G] | 4.80 | >40 µM | < 4.70 |  |
| COC(=O)N1CCN(C(=O)/C=C/c2ccc(Sc3ccccc3C(C)C)c([N+](=O)[O-])c2)CC1 [Cmpd V] |  |  |  | pIC50 (CD11b (Mac-1); [3]): > 5.00 |
| CD11b Q327A / CD18 (from UniProt P11215) (receptor) |  |  |  | binding, % [1]: 140%; binding, % of wildtype levels (% of wildtype levels) [2]: 105 |
| CN(CCCNCc1ccccc1Sc1ccc2ccccc2c1)c1ccccc1.O=C(O)C(F)(F)F.O=C(O)C(F)(F)F [Cmpd AE] | 5.15 | 30 µM | < 4.70 |  |
| Nc1ccc(SCc2ccc(Cl)cc2Cl)c(Cl)c1 [Cmpd X] | 5.10 | 30 µM | < 4.70 |  |
| O=C(/C=C/c1ccc(Sc2ccc3c(c2)OCCO3)c([N+](=O)[O-])c1)N1CCNCC1 [Cmpd B] | 4.77 | >40 µM | < 4.70 |  |
| O=C(O)C(F)(F)F.O=C(O)C(F)(F)F.c1ccc(Sc2ccc3ccccc3c2)c(CNCCN2CCCC2)c1 [Cmpd AH] | 5.05 | 38 µM | < 4.70 |  |
| CD11b I332A / CD18 (from UniProt P11215) (receptor) |  |  |  | binding, % [1]: 205%; binding, % of wildtype levels (% of wildtype levels) [2]: 123 |
| CN1CCN(C(=O)/C=C/c2ccc(Sc3ccc(Cl)cc3Cl)c(Cl)c2)CC1 [Cmpd U] | 4.82 | >40 µM | < 4.70 |  |
| CN(CCCNCc1ccccc1Sc1cc(Cl)cc(Cl)c1)c1ccccc1 [Cmpd AZ] |  |  |  | pIC50 (Rac1): 5.51 |
| O=C(/C=C/c1ccc(Sc2ccc(Cl)cc2Cl)c([N+](=O)[O-])c1)N1CCNCC1 [Cmpd A] | 4.85 | >40 µM | 4.77 |  |
| CC(C)c1ccc(Sc2ccc(N)cc2Cl)cc1 [Cmpd E] | 4.80 | >40 µM | < 4.70 |  |

| Molecule | pEC50 (α2β1) | TOXICITY LD50 (Jurkat cells) | pEC50 (α4β1) | other results |
| --- | --- | --- | --- | --- |
| CSc1ccc(-c2ccnc(N3CCC(C)CC3)c2)cc1C(C)(F)F [Cmpd AAA] |  |  |  | pIC50 (Rac1): 5.46 |
| CSc1ccc(Sc2ccccc2CNCCCN(C)c2ccccc2)cc1.O=C(O)C(F)(F)F.O=C(O)C(F)(F)F [Cmpd AL] | 5.10 | 20 µM | < 4.70 |  |
| CN(C)CCCCNCc1ccccc1Sc1c(Cl)cccc1Cl [Cmpd AC] |  |  |  | pIC50 (CD11b (Mac-1); [4]): > 6.70 |
| CD11b F333A / CD18 (from UniProt P11215) (receptor) |  |  |  | binding, % [1]: 4.9%; binding, % [2]: 1.1% |
| O=C(/C=C/c1ccc(Sc2ccccc2CN2CCOCC2)c(Cl)c1)N1CCOCC1 [Cmpd L] |  |  |  | pIC50 (CD11b (Mac-1); [3]): > 5.00 |
| CN(C)CCCCNCc1ccccc1Sc1ccc(Cl)cc1Cl [Cmpd O] |  |  |  | pIC50 (CD11b (Mac-1); [3]): > 5.00 |
| CC(C)c1ccccc1Sc1ccc(/C=C/C(=O)N2CCN(C(=O)OC(C)(C)C)C(CO)C2)cc1[N+](=O)[O-] (centres unmarked) [Cmpd F] |  |  |  | pIC50 (CD11b (Mac-1); [3]): > 5.00 |
| CC(C)Sc1ccc(-c2ccnc(N3CCCC(C)(C)C3)c2)cc1C(F)(F)F [Cmpd AAB] |  |  |  | pIC50 (Rac1): 5.33 |
| CCN1CCCC1CNCc1ccccc1Sc1ccc2ccccc2c1.O=C(O)C(F)(F)F.O=C(O)C(F)(F)F (centres unmarked) [Cmpd AG] | 5.15 | 35 µM | < 4.70 |  |
| CCN1CCN(c2cc(-c3ccc(Sc4ccccc4C(C)C)c(C(F)(F)F)c3)ccn2)CC1.O=C(O)C(F)(F)F.O=C(O)C(F)(F)F [Cmpd AN] | 4.77 | >40 µM | < 4.70 |  |
| CN(CCCNCc1ccccc1Sc1c(Cl)cccc1Cl)c1ccccc1.O=C(O)C(F)(F)F.O=C(O)C(F)(F)F [Cmpd AD] | 5.70 | 3 µM | < 4.70 |  |
| Cl.O=C1CCCN1CCCNCc1ccc(Sc2cccc(Cl)c2Cl)c(Cl)c1 [Cmpd M] | 5.10 | 25 µM | < 4.70 |  |
| CD11b E336A / CD18 (from UniProt P11215) (receptor) |  |  |  | binding, % [1]: 4.3%; binding, % [2]: 0.7% |
| CN(C)CCNCc1ccc(Sc2ccc(Cl)cc2Cl)c(Cl)c1 [Cmpd R] |  |  |  | pIC50 (CD11b (Mac-1); [3]): > 5.00 |
| CN(C)CCNCc1ccccc1Sc1ccc(Cl)cc1Cl [Cmpd S] |  |  |  | pIC50 (CD11b (Mac-1); [3]): > 5.00 and 6.00 |
| CN(C)CCCNCc1ccccc1Sc1ccc2ccccc2c1.O=C(O)C(F)(F)F.O=C(O)C(F)(F)F [Cmpd AI] | 5.22 | 33 µM | < 4.70 |  |
| FC(F)(F)Oc1ccc(Sc2ccccc2CNC2CCN(Cc3ccccc3)CC2)cc1.O=C(O)C(F)(F)F.O=C(O)C(F)(F)F [Cmpd AJ] | 5.10 | 38 µM | < 4.70 |  |
| CN(C)CCN(Cc1ccccc1Sc1ccc(Cl)cc1Cl)C(=O)c1ccc(/C=C/C(=O)N2CCOCC2)cc1Cl [Cmpd Q] |  |  |  | pIC50 (CD11b (Mac-1); [3]): > 5.00 |
| CC(C)Sc1ccc(-c2ccnc(N3CCC(NC(=O)OC(C)(C)C)CC3)c2)cc1C(F)(F)F [Cmpd AAC] |  |  |  | pIC50 (Rac1): 5.30 |
| CN(CCCNCc1ccccc1Sc1c(Cl)cccc1Cl)c1ccccc1 [Cmpd AY] |  |  |  | pIC50 (Rac1): 5.72 |
| CN(CCCNCc1ccccc1Sc1cccc(C(F)(F)F)c1)c1ccccc1.O=C(O)C(F)(F)F.O=C(O)C(F)(F)F [Cmpd AK] | 5.05 | 35 µM | < 4.70 |  |
